Laboratory results: US20260193254A1, “2-OXOQUINAZOLINE CRYSTALLINE FORMS” (IDEAYA Biosciences, Inc., priority 2022, published 2026)
In brackets after ≈: the same amount, converted by molar mass. Marks after values point to notes of the source that are not given here.

Assays:
Assay type in all cases: physicochemical
[1] = Approximate solubility of solid state Form V at 25° C. and 50° C. (visual observation); conditions: thermodynamic from solid
Method: Maximum volume of each solvent added was 1 mL. Approximate solubility was determined by visual observation.

[2] = Crystallization from hot saturated solutions by fast cooling; conditions: 50° C. to ice bath
Method: Obtained solution or suspension was filtered by a 0.45 μm syringe membrane filter. Clear solutions were put into an ice bath and agitated. Precipitates were collected by filtration. The solid part (wet cake) was investigated by XRPD. When differences were observed, additional investigations were performed (e.g. DSC, TGA, etc.).

[3] = Water activity study; conditions: protected by kapton film
From the text: These solvent mixtures were saturated with the compound of Formula (I) before addition of the polymorph seeds. […] These solvent mixtures were saturated with the compound of Formula (I) before addition of the polymorph seeds. Obtained suspension was filtered. Solid part (wet cake) was investigated by XRPD.

[4] = Bulk stability of crystalline forms; conditions: for Purity, Bulk (HPLC): Solid state
From the text: (§1) Solids obtained after bulk stability study were characterized by XRPD and HPLC.

[5] = Equilibrium solubility in FeSSIF and FaSSIF; conditions: 24 hours; for Solubility: target concentration 1 mg/mL, HPLC method 1 or 2 (footnote); for impurity in solubility sample: no unit printed for impurity (column head mg/mL)
Method: (§2) Solid part and liquid part were separated by filtration. Solubility was measured by HPLC. Solid part (wet cake) was investigated by XRPD.

[6] = Equilibrium solubility in SGF (pH 2.0), 0.1 N HCl (pH 1.2) and phosphate buffer (pH 8.0); conditions: 24 hours; for solubility at 24 h: 37 °C, thermodynamic from solid, target concentration 1 mg/mL, HPLC method 2
Method: as §2

[7] = Intrinsic dissolution rate (IDR) evaluation in FaSSIF; conditions: FaSSIF at 37° C.
Method: Only one surface of the pellet was exposed (surface area=0.50 cm^2) to 900 mL FaSSIF, the dissolution medium. Temperature of chamber medium was set as 37±0.5° C. Shaft rotation as 100 rpm and sampling time points as 2 min, 5 min, 10 min, 15 min, 20 min, 25 min, 30 min, 35 min, 40 min, 50 min, 60 min, and 120 min. 2 mL sample solution was withdrawn at each time point and centrifuged at 14,000 rpm for 5 min to isolate supernatant. Then concentration of the supernatant was analyzed by HPLC. After 120 min, XRPD of disc surface was measured.

[8] = Bulk stability of crystalline forms; parameters: key: Color A: All No change of color; conditions: Solid state
From the text: as §1

[9] = 25° C./92% RH, open container, 1 week
[10] = 25° C./92% RH, open container, 2 weeks
[11] = 40° C./75% RH, open container, 1 week
[12] = 40° C./75% RH, open container, 2 weeks
[13] = 60° C., tight container, 1 week
[14] = 60° C., tight container, 2 weeks
[15] = pH 8 (phosphate buffer), 37° C.

Q: What does the source list for `Nc1nc(=O)n(-c2ccccc2Cl)c2nc(C(F)(F)F)ccc12` [solid state Form V, 4-Amino-1-(2-chlorophenyl)-7-(trifluoromethyl)pyrido[2,3-d]pyrimidin-2(1H)-one]?
A: solubility at 10 min ([1]; organic solvent or mixture, SL2 Methanol, 25° C.): 15000 to 18000 µg/mL (≈ 44 to 52.8 mM); solubility at 10 min ([1]; organic solvent or mixture, SL2 Methanol, 50° C.): 30000 to 35000 µg/mL (≈ 88.1 to 103 mM); solubility at 10 min ([1]; organic solvent or mixture, SL3 Ethanol, 25° C.): 7000 to 8000 µg/mL (≈ 20.5 to 23.5 mM); solubility at 10 min ([1]; organic solvent or mixture, SL3 Ethanol, 50° C.): 15000 to 17000 µg/mL (≈ 44 to 49.9 mM); solubility at 10 min ([1]; organic solvent or mixture, SL4 2-Propanol, 25° C.): < 5000 µg/mL; solubility at 10 min ([1]; organic solvent or mixture, SL4 2-Propanol, 50° C.): 5000 to 10000 µg/mL (≈ 14.7 to 29.4 mM); solubility at 10 min ([1]; organic solvent or mixture, SL5 Ethyl acetate, 25° C.): < 5000 µg/mL; solubility at 10 min ([1]; organic solvent or mixture, SL5 Ethyl acetate, 50° C.): < 5000 µg/mL; solubility at 10 min ([1]; organic solvent or mixture, SL6 Isopropyl acetate, 25° C.): < 5000 µg/mL; solubility at 10 min ([1]; organic solvent or mixture, SL6 Isopropyl acetate, 50° C.): < 5000 µg/mL; solubility at 10 min ([1]; organic solvent or mixture, SL7 Acetone, 25° C.): < 5000 µg/mL; solubility at 10 min ([1]; organic solvent or mixture, SL7 Acetone, 50° C.): 5000 to 10000 µg/mL (≈ 14.7 to 29.4 mM); solubility at 10 min ([1]; organic solvent or mixture, SL8 Methyl ethyl ketone, 25° C.): < 5000 µg/mL; solubility at 10 min ([1]; organic solvent or mixture, SL8 Methyl ethyl ketone, 50° C.): < 5000 µg/mL; solubility at 10 min ([1]; organic solvent or mixture, SL9 t-Butyl methyl ether, 25° C.): < 5000 µg/mL; solubility at 10 min ([1]; organic solvent or mixture, SL9 t-Butyl methyl ether, 50° C.): < 5000 µg/mL; solubility at 10 min ([1]; organic solvent or mixture, SL10 Tetrahydrofuran, 25° C.): < 5000 µg/mL; solubility at 10 min ([1]; organic solvent or mixture, SL10 Tetrahydrofuran, 50° C.): < 5000 µg/mL; solubility at 10 min ([1]; organic solvent or mixture, SL11 2-methyl-THF, 25° C.): < 5000 µg/mL; solubility at 10 min ([1]; organic solvent or mixture, SL11 2-methyl-THF, 50° C.): < 5000 µg/mL; solubility at 10 min ([1]; organic solvent or mixture, SL12 Acetonitrile, 25° C.): < 5000 µg/mL; solubility at 10 min ([1]; organic solvent or mixture, SL12 Acetonitrile, 50° C.): < 5000 µg/mL; solubility at 10 min ([1]; organic solvent or mixture, SL13 Heptane, 25° C.): < 5000 µg/mL; solubility at 10 min ([1]; organic solvent or mixture, SL13 Heptane, 50° C.): < 5000 µg/mL; solubility at 10 min ([1]; organic solvent or mixture, SL14 Dichloromethane, 25° C.): < 5000 µg/mL; solubility at 10 min ([1]; organic solvent or mixture, SL14 Dichloromethane, 50° C.): < 5000 µg/mL; solubility at 10 min ([1]; organic solvent or mixture, SL15 Toluene, 25° C.): < 5000 µg/mL; solubility at 10 min ([1]; organic solvent or mixture, SL15 Toluene, 50° C.): < 5000 µg/mL; solubility at 10 min ([1]; SL1 Water, 25° C.): < 5000 µg/mL; solubility at 10 min ([1]; SL1 Water, 50° C.): < 5000 µg/mL; Crystalline Form formed by fast cooling of hot saturated solution ([2]; FC1 Methanol (30 mg/mL)): Form C; Crystalline Form formed by fast cooling of hot saturated solution ([2]; FC2 Ethanol (13 mg/mL)): Solid state Form V; Crystalline Form formed by fast cooling of hot saturated solution ([2]; FC3 2-Propanol (7 mg/mL)): Form J (IPA solvate); Crystalline Form formed by fast cooling of hot saturated solution ([2]; FC4 Acetone (7 mg/mL)): Form G; Crystalline Form formed by fast cooling of hot saturated solution ([2]; FC5 Methanol/water = 1/1 (v/v) (6 mg/mL)): Form C; Crystalline Form formed by fast cooling of hot saturated solution ([2]; FC6 Ethanol/water = 1/1 (v/v) (8 mg/mL)): Form F; Crystalline Form formed by fast cooling of hot saturated solution ([2]; FC7 Methanol/MTBE = 1/1 (v/v) (13 mg/mL)): Form H (MTBE solvate); Form obtained in water activity study (XRPD) ([3]; AW4 EtOH/water = 0.4/0.6 (v/v) aw = 0.91, 25° C. (4 days)): Form F (protected by kapton film); Form obtained in water activity study (XRPD) ([3]; AW5 EtOH/water = 0.3/0.7 (v/v) aw = 0.93, 25° C. (4 days)): Form F (protected by kapton film); Form obtained in water activity study (XRPD) ([3]; AW6 EtOH/water = 0.2/0.8 (v/v) aw = 0.95, 25° C. (4 days)): Form F (protected by kapton film)^a; Form obtained in water activity study (XRPD) ([3]; AW7 EtOH/water = 0.1/0.9 (v/v) aw = 0.97, 25° C. (4 days)): Form E (protected by kapton film); Form obtained in water activity study (XRPD) ([3]; AW8 MeOH aw = 0.0, 25° C. (4 days)): Form C (protected by kapton film); Form obtained in water activity study (XRPD) ([3]; AW9 MeOH/water = 0.970/0.030 (v/v) aw = 0.1, 25° C. (4 days)): Form F (protected by kapton film); Form obtained in water activity study (XRPD) ([3]; AW10 MeOH/water = 0.930/0.070 (v/v) aw = 0.2, 25° C. (4 days)): Form F (protected by kapton film); Form obtained in water activity study (XRPD) ([3]; AW11 MeOH/water = 0.893/0.107 (v/v) aw = 0.3, 25° C. (4 days)): Form F (protected by kapton film); Form obtained in water activity study (XRPD) ([3]; AW12 MeOH/water = 0.775/0.225 (v/v) aw = 0.5, 25° C. (4 days)): Form F (protected by kapton film); Form obtained in water activity study (XRPD) ([3]; AW13 MeOH/water = 0.580/0.420 (v/v) aw = 0.7, 25° C. (4 days)): Form F (protected by kapton film); Form obtained in water activity study (XRPD) ([3]; AW14 MeOH/water = 0.4/0.6 (v/v) aw = 0.81, 25° C. (4 days)): Form E (protected by kapton film); Form obtained in water activity study (XRPD) ([3]; AW15 MeOH/water = 0.3/0.7 (v/v) aw = 0.86, 25° C. (4 days)): Form E (protected by kapton film); Form obtained in water activity study (XRPD) ([3]; AW16 MeOH/water = 0.2/0.8 (v/v) aw = 0.91, 25° C. (4 days)): Form E (protected by kapton film); Form obtained in water activity study (XRPD) ([3]; AW17 MeOH/water = 0.1/0.9 (v/v) aw = 0.96, 25° C. (4 days)): Form E (protected by kapton film); Form obtained in water activity study (XRPD) ([3]; AW18 Water aw = 1.0, 25° C. (4 days)): Form E (protected by kapton film)^b; Purity, Bulk (HPLC) [4, 9]: 98.9%; Purity, Bulk (HPLC) [4, 10]: 98.9%; Purity, Bulk (HPLC) [4, 11]: 98.9%; Purity, Bulk (HPLC) [4, 12]: 98.7%; Purity, Bulk (HPLC) [4, 13]: 98.8%; Purity, Bulk (HPLC) [4, 14]: 98.9%; Initial purity ([4]; before stress, HPLC): 98.9%; chemical stability and physical stability (bulk stability) ([4]; stressed under 25° C./92 RH, 40% C/75% RH and 60° C., XRPD and HPLC): good chemical stability and physical stability; final pH ([5]; FaSSIF, pH 6.5, 37° C.): 6.5; Solubility ([5]; FaSSIF, pH 6.5, 37° C.): 0.10 mg/mL (≈ 0.294 mM); impurity in solubility sample ([5]; FaSSIF, pH 6.5, 37° C.): no impurity; final pH ([5]; FeSSIF, pH 5.0, 37° C.): 5.0; Solubility ([5]; FeSSIF, pH 5.0, 37° C.): 0.26 mg/mL (≈ 0.763 mM); impurity in solubility sample ([5]; FeSSIF, pH 5.0, 37° C.): no impurity; solubility at 24 h ([6]; 0.1 N HCl, pH 1.2, simulated gastric fluid, pH 1.2 (0.1N HCl)): 150 µg/mL (≈ 0.44 mM); final pH ([6]; SGF, pH 2.0, 37° C.): 2.3; final pH ([6]; pH 1.2 (0.1N HCl), 37° C.): 1.3; XRPD of solid after solubility test [6, 15]: Solid state Form V; final pH [6, 15]: 8.0; impurity in solubility sample [6, 15]: no impurity; solubility at 24 h ([6]; phosphate buffer, pH 8, aqueous buffer, pH 8 (phosphate buffer)): 40 µg/mL (≈ 0.117 mM); solubility at 24 h ([6]; simulated gastric fluid (SGF), pH 2, simulated gastric fluid, SGF, pH 2.0, 37° C.): 70 µg/mL (≈ 0.205 mM); XRPD after IDR ([7]; disc surface after 120 min): No form change; Concentration detected during IDR test (Comments) ([7]; for Form V and Form A remains same during the whole process, LOQ for Form T and amorphous form): (0.006 mg/mL); Color [8, 9]: A; Color [8, 10]: A; Color [8, 11]: A; Color [8, 12]: A; Color [8, 13]: A; Color [8, 14]: A
